Biological target: T1, Solute carrier family 22 member 1 (Mus musculus, UniProt O08966)
T1 sequence (O08966 whole entry): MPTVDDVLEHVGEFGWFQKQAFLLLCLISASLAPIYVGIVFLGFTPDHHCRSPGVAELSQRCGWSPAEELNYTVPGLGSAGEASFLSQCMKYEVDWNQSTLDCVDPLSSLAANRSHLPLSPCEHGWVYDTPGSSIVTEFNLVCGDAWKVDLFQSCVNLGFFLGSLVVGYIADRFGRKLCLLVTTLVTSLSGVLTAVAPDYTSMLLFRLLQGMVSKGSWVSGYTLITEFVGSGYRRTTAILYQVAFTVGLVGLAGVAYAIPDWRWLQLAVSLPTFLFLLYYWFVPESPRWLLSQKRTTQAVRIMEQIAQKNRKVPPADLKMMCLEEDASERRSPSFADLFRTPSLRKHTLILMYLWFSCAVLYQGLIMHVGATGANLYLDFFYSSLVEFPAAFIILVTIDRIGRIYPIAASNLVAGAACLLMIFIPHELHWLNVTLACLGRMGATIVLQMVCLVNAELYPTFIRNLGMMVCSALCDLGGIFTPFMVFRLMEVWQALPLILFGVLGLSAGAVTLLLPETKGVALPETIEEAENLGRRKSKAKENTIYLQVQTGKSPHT
Assay: TP_TRANSPORTER: decrease in liver concentration in Oct1 -/- mouse
Format: functional, organism-based
Conditions: in vivo

| Compound | Activity |
| --- | --- |
| C[n+]1ccc(-c2ccccc2)cc1 | substrate [+] |
| N=C(N)NCc1cccc(I)c1 [IOBENGUANE] | substrate [+] |
| CC[N+](CC)(CC)CC [TETRYLAMMONIUM] | substrate [+] |

From ChEMBL document CHEMBL2073961, “Reduced hepatic uptake and intestinal excretion of organic cations in mice with a targeted disruption of the organic cation transporter 1 (Oct1 [Slc22a1]) gene” (Mol Cell Biol, 2001)
